Values quoted from earlier work as cited in US7148216B2, “Combinations of drugs for the treatment of neoplastic disorders” (CombinatoRx, Inc., priority 2000, dated 2006).
Like-named read-outs stand apart in the source and are kept apart here.

solubility (in ether, acetone, and chloroform): insoluble | solubility (in water and glycerin): soluble
SMILES: N=C(N)c1ccc(OCCCCCOc2ccc(C(=N)N)cc2)cc1 [pentamidine isethionate, 4,4′-diamidino-diphenoxypentane di(β-hydroxyethanesulfonate)]
